Measurements: patent US20260242419A1, “A CYCLIC PEPTIDE FOR TRAPPING INTERLEUKIN-1 BETA” (Merck Sharp & Dohme LLC, priority 2023, published 2026)
Starred links: 1 amine or outer side, 2 acyl side, 3 side chain; linkers in the order of their positions; H or OH if unused. Non-standard residues stand in square brackets, D forms with d. Residues, ends and D or L forms follow the SMILES beside them. Groups on a side chain read outwards from the residue. *: point of attachment. dPro(4R-(4-pyridylmethyl)) = O=C(O)[C@H]1C[C@@H](Cc2ccncc2)CN1; Benzoyl(4-piperazinyl) = O=C(c1ccc(N2CCN([*:1])CC2)cc1)[*:2]; Trp(βS-Me,4-F) = C[C@@H](c1c[nH]c2cccc(F)c12)[C@H](N)C(=O)O; Ala(pyrimidin-5-yl) = N[C@@H](Cc1cncnc1)C(=O)O; Phe(4-COOH) = N[C@@H](Cc1ccc(C(=O)O)cc1)C(=O)O; Pro(cis-4-F) = O=C(O)[C@@H]1C[C@H](F)CN1; Cyclohexanecarbonyl = O=C(C1CCCCC1)*; AEF = NCCOc1ccc(C[C@H](N)C(=O)O)cc1; Pyrazinecarbonyl = O=C(c1cnccn1)*; 4Pal = N[C@@H](Cc1ccncc1)C(=O)O; Isonicotinoyl = O=C(c1ccncc1)*; Dab = NCC[C@H](N)C(=O)O; Aib = CC(C)(N)C(=O)O; Inp = O=C(O)C1CCNCC1; Piv = CC(C)(C)C(=O)*; X50 = O=C(c1ccncn1)*; Bz = O=C(c1ccccc1)*; X2 = O=C(c1ncccn1)*

target: T1, IL-1β (Homo sapiens, UniProt P01584); experiment: IL-6 assay in MRC5 cells: inhibition of IL-1β induced IL-6 secretion (AlphaLISA); assay type: cell-based; details: inhibition of IL-1β induced IL-6 secretion in MRC5 cells; compound pre-incubated 1 hour with recombinant human IL-1β; read-out: MRC5 IC50
T1 construct: purchased BioLegend 579404
Method in brief: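 Compound was pre-incubated 1 h at ambient temperature with recombinant human IL-1β at 2λ EC80 before adding human lung fibroblast MRC5 cells (3000/well) in EMEM with 0.025% BSA. After overnight culture at 37 °C, 5% CO2, secreted IL-6 in conditioned medium was measured by AlphaLISA; IC50 from 4-parameter logistic fits.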

T1 sequence (P01584 117-269): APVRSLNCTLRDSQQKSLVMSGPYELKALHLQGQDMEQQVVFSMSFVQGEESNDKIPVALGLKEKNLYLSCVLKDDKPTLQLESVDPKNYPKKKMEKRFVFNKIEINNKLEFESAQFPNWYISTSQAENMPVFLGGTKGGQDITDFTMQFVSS

SMILES | IC50
C[C@@H](c1c[nH]c2cccc(F)c12)[C@@H]1NC(=O)[C@@H]2C[C@H](F)CN2C(=O)CNC(=O)[C@H](Cc2ccc(C(=O)O)cc2)NC(=O)[C@H](Cc2ccncc2)NC(=O)[C@H](Cc2ccc(OCCNC(=O)C(C)(C)C)cc2)NC(=O)[C@H]2C[C@@H](Cc3ccncc3)CN2C(=O)CNC(=O)[C@H](CCN)NC(=O)[C@H](CCC(N)=O)NC(=O)[C@H](Cc2cncnc2)NC(=O)C(C)(C)NC(=O)[C@H](Cc2c[nH]c3ccccc23)NC(=O)[C@H](CO)NC(=O)C(C)(C)NC1=O [Example 300] (cyclo([AEF](Piv)[4Pal][Phe(4-COOH)]G[Pro(cis-4-F)][Trp(βS-Me,4-F)][Aib]SW[Aib][Ala(pyrimidin-5-yl)]Q[Dab]G[dPro(4R-(4-pyridylmethyl))])) | 0.013 nM
C[C@@H](c1c[nH]c2cccc(F)c12)[C@@H]1NC(=O)[C@@H]2C[C@H](F)CN2C(=O)CNC(=O)[C@H](Cc2ccc(C(=O)O)cc2)NC(=O)[C@H](Cc2ccncc2)NC(=O)[C@H](Cc2ccc(OCCNC(=O)C3CCCCC3)cc2)NC(=O)[C@H]2C[C@@H](Cc3ccncc3)CN2C(=O)CNC(=O)[C@H](CCN)NC(=O)[C@H](CCC(N)=O)NC(=O)[C@H](Cc2cncnc2)NC(=O)C(C)(C)NC(=O)[C@H](Cc2c[nH]c3ccccc23)NC(=O)[C@H](CO)NC(=O)C(C)(C)NC1=O [Example 301] (cyclo([AEF](Cyclohexanecarbonyl)[4Pal][Phe(4-COOH)]G[Pro(cis-4-F)][Trp(βS-Me,4-F)][Aib]SW[Aib][Ala(pyrimidin-5-yl)]Q[Dab]G[dPro(4R-(4-pyridylmethyl))])) | 0.017 nM
CC(=O)N1CCC(C(=O)NCCOc2ccc(C[C@@H]3NC(=O)[C@H]4C[C@@H](Cc5ccncc5)CN4C(=O)CNC(=O)[C@H](CCN)NC(=O)[C@H](CCC(N)=O)NC(=O)[C@H](Cc4cncnc4)NC(=O)C(C)(C)NC(=O)[C@H](Cc4c[nH]c5ccccc45)NC(=O)[C@H](CO)NC(=O)C(C)(C)NC(=O)[C@H]([C@@H](C)c4c[nH]c5cccc(F)c45)NC(=O)[C@@H]4C[C@H](F)CN4C(=O)CNC(=O)[C@H](Cc4ccc(C(=O)O)cc4)NC(=O)[C@H](Cc4ccncc4)NC3=O)cc2)CC1 [Example 302] (cyclo([AEF]([Inp-Ac])[4Pal][Phe(4-COOH)]G[Pro(cis-4-F)][Trp(βS-Me,4-F)][Aib]SW[Aib][Ala(pyrimidin-5-yl)]Q[Dab]G[dPro(4R-(4-pyridylmethyl))])) | 0.017 nM
C[C@@H](c1c[nH]c2cccc(F)c12)[C@@H]1NC(=O)[C@@H]2C[C@H](F)CN2C(=O)CNC(=O)[C@H](Cc2ccc(C(=O)O)cc2)NC(=O)[C@H](Cc2ccncc2)NC(=O)[C@H](Cc2ccc(OCCNC(=O)c3cnccn3)cc2)NC(=O)[C@H]2C[C@@H](Cc3ccncc3)CN2C(=O)CNC(=O)[C@H](CCN)NC(=O)[C@H](CCC(N)=O)NC(=O)[C@H](Cc2cncnc2)NC(=O)C(C)(C)NC(=O)[C@H](Cc2c[nH]c3ccccc23)NC(=O)[C@H](CO)NC(=O)C(C)(C)NC1=O [Example 303] (cyclo([AEF](Pyrazinecarbonyl)[4Pal][Phe(4-COOH)]G[Pro(cis-4-F)][Trp(βS-Me,4-F)][Aib]SW[Aib][Ala(pyrimidin-5-yl)]Q[Dab]G[dPro(4R-(4-pyridylmethyl))])) | 0.016 nM

same assay, conditions: inhibition of IL-1β induced IL-6 secretion in MRC5 cells; read-out: MRC5 IC50

SMILES | IC50
C[C@@H](c1c[nH]c2cccc(F)c12)[C@@H]1NC(=O)[C@@H]2C[C@H](F)CN2C(=O)CNC(=O)[C@H](Cc2ccc(C(=O)O)cc2)NC(=O)[C@H](Cc2ccncc2)NC(=O)[C@H](Cc2ccc(OCCNC(=O)c3ncccn3)cc2)NC(=O)[C@H]2C[C@@H](Cc3ccncc3)CN2C(=O)CNC(=O)[C@H](CCN)NC(=O)[C@H](CCC(N)=O)NC(=O)[C@H](Cc2cncnc2)NC(=O)C(C)(C)NC(=O)[C@H](Cc2c[nH]c3ccccc23)NC(=O)[C@H](CO)NC(=O)C(C)(C)NC1=O [Example 304] (cyclo([AEF](X2)[4Pal][Phe(4-COOH)]G[Pro(cis-4-F)][Trp(βS-Me,4-F)][Aib]SW[Aib][Ala(pyrimidin-5-yl)]Q[Dab]G[dPro(4R-(4-pyridylmethyl))])) | 0.014 nM
C[C@@H](c1c[nH]c2cccc(F)c12)[C@@H]1NC(=O)[C@@H]2C[C@H](F)CN2C(=O)CNC(=O)[C@H](Cc2ccc(C(=O)O)cc2)NC(=O)[C@H](Cc2ccncc2)NC(=O)[C@H](Cc2ccc(OCCNC(=O)c3ccncn3)cc2)NC(=O)[C@H]2C[C@@H](Cc3ccncc3)CN2C(=O)CNC(=O)[C@H](CCN)NC(=O)[C@H](CCC(N)=O)NC(=O)[C@H](Cc2cncnc2)NC(=O)C(C)(C)NC(=O)[C@H](Cc2c[nH]c3ccccc23)NC(=O)[C@H](CO)NC(=O)C(C)(C)NC1=O [Example 305] (cyclo([AEF](X50)[4Pal][Phe(4-COOH)]G[Pro(cis-4-F)][Trp(βS-Me,4-F)][Aib]SW[Aib][Ala(pyrimidin-5-yl)]Q[Dab]G[dPro(4R-(4-pyridylmethyl))])) | 0.016 nM
C[C@@H](c1c[nH]c2cccc(F)c12)[C@@H]1NC(=O)[C@@H]2C[C@H](F)CN2C(=O)CNC(=O)[C@H](Cc2ccc(C(=O)O)cc2)NC(=O)[C@H](Cc2ccncc2)NC(=O)[C@H](Cc2ccc(OCCNC(=O)c3ccc(N4CCNCC4)cc3)cc2)NC(=O)[C@H]2C[C@@H](Cc3ccncc3)CN2C(=O)CNC(=O)[C@H](CCN)NC(=O)[C@H](CCC(N)=O)NC(=O)[C@H](Cc2cncnc2)NC(=O)C(C)(C)NC(=O)[C@H](Cc2c[nH]c3ccccc23)NC(=O)[C@H](CO)NC(=O)C(C)(C)NC1=O [Example 306] (cyclo([AEF](Benzoyl(4-piperazinyl))[4Pal][Phe(4-COOH)]G[Pro(cis-4-F)][Trp(βS-Me,4-F)][Aib]SW[Aib][Ala(pyrimidin-5-yl)]Q[Dab]G[dPro(4R-(4-pyridylmethyl))])) | 0.02 nM
C[C@@H](c1c[nH]c2cccc(F)c12)[C@@H]1NC(=O)[C@@H]2C[C@H](F)CN2C(=O)CNC(=O)[C@H](Cc2ccc(C(=O)O)cc2)NC(=O)[C@H](Cc2ccncc2)NC(=O)[C@H](Cc2ccc(OCCNC(=O)c3ccncc3)cc2)NC(=O)[C@H]2C[C@@H](Cc3ccncc3)CN2C(=O)CNC(=O)[C@H](CCN)NC(=O)[C@H](CCC(N)=O)NC(=O)[C@H](Cc2cncnc2)NC(=O)C(C)(C)NC(=O)[C@H](Cc2c[nH]c3ccccc23)NC(=O)[C@H](CO)NC(=O)C(C)(C)NC1=O [Example 307] (cyclo([AEF](Isonicotinoyl)[4Pal][Phe(4-COOH)]G[Pro(cis-4-F)][Trp(βS-Me,4-F)][Aib]SW[Aib][Ala(pyrimidin-5-yl)]Q[Dab]G[dPro(4R-(4-pyridylmethyl))])) | 0.018 nM
C[C@@H](c1c[nH]c2cccc(F)c12)[C@@H]1NC(=O)[C@@H]2C[C@H](F)CN2C(=O)CNC(=O)[C@H](Cc2ccc(C(=O)O)cc2)NC(=O)[C@H](Cc2ccncc2)NC(=O)[C@H](Cc2ccc(OCCNC(=O)c3ccccc3)cc2)NC(=O)[C@H]2C[C@@H](Cc3ccncc3)CN2C(=O)CNC(=O)[C@H](CCN)NC(=O)[C@H](CCC(N)=O)NC(=O)[C@H](Cc2cncnc2)NC(=O)C(C)(C)NC(=O)[C@H](Cc2c[nH]c3ccccc23)NC(=O)[C@H](CO)NC(=O)C(C)(C)NC1=O [Example 308] (cyclo([AEF](Bz)[4Pal][Phe(4-COOH)]G[Pro(cis-4-F)][Trp(βS-Me,4-F)][Aib]SW[Aib][Ala(pyrimidin-5-yl)]Q[Dab]G[dPro(4R-(4-pyridylmethyl))])) | 0.013 nM
